What was measured:
LU6405 cells (PDX model) = assay: In vivo PDX model, Compound 478 and Afatinib (Table 4c); conditions: LU6405, Afatinib 12.5 mg/kg, single or combined
Method: (§1) Immunocompromised nude/nude mice were inoculated in the right hind flank with cells or patient derived tumor samples harboring a KRas G12C mutation. […] The first group was administered vehicle only. […] The fourth group was administered the single agent dose of the KRas G12C inhibitor in combination with the single agent dose of the pan ErbB family inhibitor. […] Tumor volumes were measured using a caliper every two-three days and tumor volumes were calculated by the formula: 0.5×(Length×Width)^2.
(§2) Tumor volumes were measured at pre-specified days set forth below.

H2122 cells = assay: In vivo tumor model, Compound 478 and Afatinib (Table 4a); conditions: for Average Tumor Volumes: H2122, Afatinib 12.5 mg/kg, single or combined
Method: as §1, §2

KYSE-410 cells = assay: In vivo tumor model, Compound 478 and Afatinib (Table 4b); conditions: KYSE-410, Afatinib 12.5 mg/kg, single or combined
Method: as §1, §2

[1] = Day 11 post implant (treatment start), p.o. daily: Compound 478 100 mg/kg
[2] = Day 14 post implant, p.o. daily from Day 11: Compound 478 100 mg/kg
[3] = Day 18 post implant, p.o. daily from Day 11: Compound 478 100 mg/kg
[4] = Day 21 post implant, p.o. daily from Day 11: Compound 478 100 mg/kg
[5] = Day 25 post implant, p.o. daily from Day 11: Compound 478 100 mg/kg
[6] = Day 28 post implant, p.o. daily from Day 11: Compound 478 100 mg/kg
[7] = Day 32 post implant, p.o. daily from Day 11: Compound 478 100 mg/kg
[8] = Day 34 post implant, p.o. daily from Day 11: Compound 478 100 mg/kg

`CN(C)C/C=C/C(=O)Nc1cc2c(Nc3ccc(F)c(Cl)c3)ncnc2cc1OC1CCOC1` (centres unmarked) [Afatinib, (E)-N-(4-((3-chloro-4-fluorophenyl)amino)-7-((tetrahydrofuran-3-yl)oxy)quinazolin-6-yl)-4-(dimethylamino)but-2-enamide, reference compound] was tested. Which “Average Tumor Volumes” value (LU6405 cells (PDX model); [1]) did it give?
The value was 257.48 mm^3.

And the “Average Tumor Volumes” value (LU6405 cells (PDX model); [2])?
Its value is 371.98 mm^3.

What about the “Average Tumor Volumes” value (LU6405 cells (PDX model); [3]) of the same molecule?
Its value is 585.54 mm^3.

And the “Average Tumor Volumes” value (LU6405 cells (PDX model); [4])?
Its value is 775.75 mm^3.

And the “Average Tumor Volumes” value (LU6405 cells (PDX model); [5])?
Its value is 1056.23 mm^3.

What about the “Average Tumor Volumes” value (LU6405 cells (PDX model); [6]) of the same molecule?
The value was 1197.31 mm^3.

What about the “Average Tumor Volumes” value (LU6405 cells (PDX model); [7]) of the same molecule?
Its value is 1540.74 mm^3.

What about the “Average Tumor Volumes” value (LU6405 cells (PDX model); [8]) of the same molecule?
Its value is 1655.49 mm^3.

And the “Average Tumor Volumes” value (H2122 cells; [1])?
Its value is 324.86 mm^3.

And the “Average Tumor Volumes” value (H2122 cells; Day 13 post implant, p.o. daily from Day 11: Compound 478 100 mg/kg)?
Its value is 429.76 mm^3.

And the “Average Tumor Volumes” value (H2122 cells; Day 15 post implant, p.o. daily from Day 11: Compound 478 100 mg/kg)?
The value was 573.36 mm^3.

And the “Average Tumor Volumes” value (H2122 cells; [3])?
The value was 694.70 mm^3.

What about the “Average Tumor Volumes” value (H2122 cells; Day 20 post implant, p.o. daily from Day 11: Compound 478 100 mg/kg) of the same molecule?
Its value is 850.85 mm^3.

And the “Average Tumor Volumes” value (H2122 cells; Day 22 post implant, p.o. daily from Day 11: Compound 478 100 mg/kg)?
Its value is 931.53 mm^3.

What about the “Average Tumor Volumes” value (H2122 cells; [5]) of the same molecule?
The value was 1153.42 mm^3.

And the “Average Tumor Volumes” value (H2122 cells; Day 27 post implant, p.o. daily from Day 11: Compound 478 100 mg/kg)?
Its value is 1307.50 mm^3.

What about the “Average Tumor Volumes” value (H2122 cells; Day 29 post implant, p.o. daily from Day 11: Compound 478 100 mg/kg) of the same molecule?
Its value is 1137.09 mm^3.

What about the “Average Tumor Volumes” value (H2122 cells; [7]) of the same molecule?
Its value is 1403.33 mm^3.

What about the “Average Tumor Volumes” value (H2122 cells; [8]) of the same molecule?
Its value is 1830.13 mm^3.

What about the tumor growth inhibition (H2122 cells; H2122 tumor bearing mice, Day 22 (Treatment Day 10), single agent, Compound 478 100 mg/kg, afatinib 12.5 mg/kg p.o. daily) of the same molecule?
Its tumor growth inhibition is 41%.

And the “Average Tumor Volumes” value (KYSE-410 cells; [1])?
Its value is 311.84 mm^3.

And the “Average Tumor Volumes” value (KYSE-410 cells; [2])?
The value was 199.20 mm^3.

And the “Average Tumor Volumes” value (KYSE-410 cells; Day 16 post implant, p.o. daily from Day 11: Compound 478 100 mg/kg)?
The value was 135.30 mm^3.

What about the “Average Tumor Volumes” value (KYSE-410 cells; [3]) of the same molecule?
The value was 114.40 mm^3.

And the “Average Tumor Volumes” value (KYSE-410 cells; [4])?
The value was 114.08 mm^3.

What about the “Average Tumor Volumes” value (KYSE-410 cells; Day 23 post implant, p.o. daily from Day 11: Compound 478 100 mg/kg) of the same molecule?
The value was 132.92 mm^3.

What about the “Average Tumor Volumes” value (KYSE-410 cells; [5]) of the same molecule?
Its value is 141.90 mm^3.

And the “Average Tumor Volumes” value (KYSE-410 cells; [6])?
The value was 144.36 mm^3.

What about the “Average Tumor Volumes” value (KYSE-410 cells; Day 30 post implant, p.o. daily from Day 11: Compound 478 100 mg/kg) of the same molecule?
The value was 166.46 mm^3.

What about the “Average Tumor Volumes” value (KYSE-410 cells; [7]) of the same molecule?
Its value is 163.92 mm^3.

And the “Average Tumor Volumes” value (KYSE-410 cells; Day 35 post implant, p.o. daily from Day 11: Compound 478 100 mg/kg)?
Its value is 181.68 mm^3.

What about the “Average Tumor Volumes” value (KYSE-410 cells; Day 37 post implant, p.o. daily from Day 11: Compound 478 100 mg/kg) of the same molecule?
The value was 198.34 mm^3.

From US12336995B2, “Combination therapies” (Mirati Therapeutics, Inc., priority 2018, dated 2025)
